# According to patent publication US20050197350A1, “Novel quinoline, tetrahydroquinazoline, and pyrimidine derivatives and methods of treatment related to the use thereof” (TAISHO PHARMACEUTICAL CO., LTD., priority 2003, published 2005):
# Tested on: MCH receptors
# Assay: MCH receptor activity class (method not given)
# Conditions: activity class per percent of control at 10^-7 M or IC50
row,Structure (SMILES),class
1,Cc1sc(-c2ccccc2)nc1CC(=O)N[C@H]1CC[C@@H](Nc2nc3c(c(N(C)C)n2)CCCC3)CC1 [compound 987],3 (Class 3 The value of percent of control at 10^−7 M was more than 60% or the value of IC50 was more than 200 nM.)
2,COc1ccc(CSC2(CC(=O)N[C@H]3CC[C@@H](Nc4nc5c(c(N(C)C)n4)CCCC5)CC3)CCCCC2)cc1 [compound 989],3 (Class 3 The value of percent of control at 10^−7 M was more than 60% or the value of IC50 was more than 200 nM.)
3,COc1ccc2c(CC(=O)N[C@H]3CC[C@@H](Nc4nc5c(c(N(C)C)n4)CCCC5)CC3)cc(=O)oc2c1 [compound 990],1 (Class 1: The value of percent of control at 10^−7 M was less than 40% or the value of IC50 was less than 50 nM.)
4,Cc1cc(C)c(NC(=O)Nc2ccc(OC(F)(F)F)cc2)c(C(=O)N[C@H]2CC[C@@H](Nc3nc4c(c(N(C)C)n3)CCCC4)CC2)c1 [compound 993],1 (Class 1: The value of percent of control at 10^−7 M was less than 40% or the value of IC50 was less than 50 nM.)
5,CN(C)c1nc(N[C@H]2CC[C@@H](NC(=O)c3cc(Cl)cc(Cl)c3NC(=O)C#Cc3ccccc3)CC2)nc2c1CCCC2 [compound 994],1 (Class 1: The value of percent of control at 10^−7 M was less than 40% or the value of IC50 was less than 50 nM.)
6,CN(C)c1nc(N[C@H]2CC[C@@H](NC(=O)c3cccc(-n4c(-c5ccc(Br)cc5)cc5c4CC(C)(C)CC5=O)c3)CC2)nc2c1CCCC2 [compound 995],3 (Class 3 The value of percent of control at 10^−7 M was more than 60% or the value of IC50 was more than 200 nM.)
7,CN(C)c1nc(N[C@H]2CC[C@@H](NC(=O)Cc3ccccc3C(=O)Nc3ccc(Cl)cc3Cl)CC2)nc2c1CCCC2 [compound 999],3 (Class 3 The value of percent of control at 10^−7 M was more than 60% or the value of IC50 was more than 200 nM.)
8,Cc1c(C(=O)N[C@H]2CC[C@@H](Nc3nc4c(c(N(C)C)n3)CCCC4)CC2)cc(-c2ccccc2)n1CCCN1CCOCC1 [compound 1000],1 (Class 1: The value of percent of control at 10^−7 M was less than 40% or the value of IC50 was less than 50 nM.)
9,CN(C)c1nc(N[C@H]2CC[C@@H](NC(=O)CCCc3ccc([N+](=O)[O-])cc3)CC2)nc2c1CCCC2 [compound 1001],1 (Class 1: The value of percent of control at 10^−7 M was less than 40% or the value of IC50 was less than 50 nM.)
10,CN(C)c1nc(N[C@H]2CC[C@@H](NC(=O)/C=C/c3ccccc3[N+](=O)[O-])CC2)nc2c1CCCC2 [compound 1002],3 (Class 3 The value of percent of control at 10^−7 M was more than 60% or the value of IC50 was more than 200 nM.)
11,CN(C)c1nc(N[C@H]2CC[C@@H](NC(=O)Cc3cccc(Oc4ccccc4)c3)CC2)nc2c1CCCC2 [compound 1003],2 (Class 2: The value of percent of control at 10^−7 M was from 40% to 60% or the value of IC′50 was from 50 nM to 200 nM.)
12,CN(C)c1nc(N[C@H]2CC[C@@H](NC(=O)Cc3ccc(Oc4ccccc4)cc3)CC2)nc2c1CCCC2 [compound 1004],2 (Class 2: The value of percent of control at 10^−7 M was from 40% to 60% or the value of IC′50 was from 50 nM to 200 nM.)
13,CN(C)c1nc(N[C@H]2CC[C@@H](NC(=O)Cc3c(-c4ccccc4)[nH]c4ccccc34)CC2)nc2c1CCCC2 [compound 1005],1 (Class 1: The value of percent of control at 10^−7 M was less than 40% or the value of IC50 was less than 50 nM.)
14,CN(C)c1nc(N[C@H]2CC[C@@H](NC(=O)c3cccc(Oc4ccccc4)c3)CC2)nc2c1CCCC2 [compound 1007],1 (Class 1: The value of percent of control at 10^−7 M was less than 40% or the value of IC50 was less than 50 nM.)
15,CN(C)c1nc(N[C@H]2CC[C@@H](NC(=O)c3ccccc3CCc3ccccc3)CC2)nc2c1CCCC2 [compound 1008],3 (Class 3 The value of percent of control at 10^−7 M was more than 60% or the value of IC50 was more than 200 nM.)
16,CN(C)c1nc(N[C@H]2CC[C@@H](NC(=O)c3cccc(C(=O)c4ccccc4)c3)CC2)nc2c1CCCC2 [compound 1009],3 (Class 3 The value of percent of control at 10^−7 M was more than 60% or the value of IC50 was more than 200 nM.)
17,CCSC(C(=O)N[C@H]1CC[C@@H](Nc2nc3c(c(N(C)C)n2)CCCC3)CC1)(c1ccccc1)c1ccccc1 [compound 1010],2 (Class 2: The value of percent of control at 10^−7 M was from 40% to 60% or the value of IC′50 was from 50 nM to 200 nM.)
18,CN(C)c1nc(N[C@H]2CC[C@@H](NC(=O)c3ccccc3Sc3ccccc3C#N)CC2)nc2c1CCCC2 [compound 1011],3 (Class 3 The value of percent of control at 10^−7 M was more than 60% or the value of IC50 was more than 200 nM.)
19,COc1cc(CC(=O)N[C@H]2CC[C@@H](Nc3nc4c(c(N(C)C)n3)CCCC4)CC2)ccc1OCc1ccccc1 [compound 1012],3 (Class 3 The value of percent of control at 10^−7 M was more than 60% or the value of IC50 was more than 200 nM.)
20,C[C@@H](NC(=O)c1ccccc1C(=O)N[C@H]1CC[C@@H](Nc2nc3c(c(N(C)C)n2)CCCC3)CC1)c1cccc2ccccc12 [compound 1013],3 (Class 3 The value of percent of control at 10^−7 M was more than 60% or the value of IC50 was more than 200 nM.)

row,Structure (SMILES),class
1,C[C@H](C(=O)N[C@H]1CC[C@@H](Nc2nc3c(c(N(C)C)n2)CCCC3)CC1)c1cccc(C(=O)c2ccccc2)c1 [compound 1014],3 (Class 3 The value of percent of control at 10^−7 M was more than 60% or the value of IC50 was more than 200 nM.)
2,C[C@@H](c1ccccc1)N(C(=O)c1ccccc1C(=O)N[C@H]1CC[C@@H](Nc2nc3c(c(N(C)C)n2)CCCC3)CC1)[C@@H](C)c1ccccc1 [compound 1015],1 (Class 1: The value of percent of control at 10^−7 M was less than 40% or the value of IC50 was less than 50 nM.)
3,C[C@H](C(=O)N[C@H]1CC[C@@H](Nc2nc3c(c(N(C)C)n2)CCCC3)CC1)c1ccc(-c2ccccc2)c(F)c1 [compound 1016],2 (Class 2: The value of percent of control at 10^−7 M was from 40% to 60% or the value of IC′50 was from 50 nM to 200 nM.)
4,CN(C)c1nc(N[C@H]2CC[C@@H](NC(=O)CCC(=O)c3cccs3)CC2)nc2c1CCCC2 [compound 1021],3 (Class 3 The value of percent of control at 10^−7 M was more than 60% or the value of IC50 was more than 200 nM.)
5,CN(C)c1nc(N[C@H]2CC[C@@H](NC(=O)CCCc3cccs3)CC2)nc2c1CCCC2 [compound 1022],3 (Class 3 The value of percent of control at 10^−7 M was more than 60% or the value of IC50 was more than 200 nM.)
6,CN(C)c1nc(N[C@H]2CC[C@@H](NC(=O)COc3c(Cl)cc(Cl)cc3Cl)CC2)nc2c1CCCC2 [compound 1023],3 (Class 3 The value of percent of control at 10^−7 M was more than 60% or the value of IC50 was more than 200 nM.)
7,CN(C)c1nc(N[C@H]2CC[C@@H](NC(=O)Cc3c[nH]c4ccc(OCc5ccccc5)cc34)CC2)nc2c1CCCC2 [compound 1024],3 (Class 3 The value of percent of control at 10^−7 M was more than 60% or the value of IC50 was more than 200 nM.)
8,CN(C)c1nc(N[C@H]2CC[C@@H](NC(=O)c3ccccc3C(=O)c3cccc4ccccc34)CC2)nc2c1CCCC2 [compound 1025],3 (Class 3 The value of percent of control at 10^−7 M was more than 60% or the value of IC50 was more than 200 nM.)
9,COc1ccc(C(=O)N[C@H]2CC[C@@H](Nc3nc4c(c(N(C)C)n3)CCCC4)CC2)cc1OCc1ccccc1 [compound 1026],1 (Class 1: The value of percent of control at 10^−7 M was less than 40% or the value of IC50 was less than 50 nM.)
10,Cc1c(C(=O)N[C@H]2CC[C@@H](Nc3nc4c(c(N(C)C)n3)CCCC4)CC2)cc(-c2ccccc2)n1-c1ccccc1 [compound 1027],2 (Class 2: The value of percent of control at 10^−7 M was from 40% to 60% or the value of IC′50 was from 50 nM to 200 nM.)
11,"Cc1c(C(=O)N[C@H]2CC[C@@H](Nc3nc4c(c(N(C)C)n3)CCCC4)CC2)cc(-c2ccccc2)n1CCSCc1c(F)cccc1Cl [compound 1028, 1-{2-[(2-chloro-6-fluorobenzyl)thio]ethyl}-N-(cis-4-{[4-(dimethy-lamino)-5,6,7,8-tetrahydroquinazolin-2-yl]amino}-cyclohexyl)-2-methyl-5-phenyl-1H-pyrrole-3-carboxamide]",2 (Class 2: The value of percent of control at 10^−7 M was from 40% to 60% or the value of IC′50 was from 50 nM to 200 nM.)
12,CN(C)c1nc(N[C@H]2CC[C@@H](NC(=O)c3c4ccccc4cc4ccccc34)CC2)nc2c1CCCC2 [compound 1029],3 (Class 3 The value of percent of control at 10^−7 M was more than 60% or the value of IC50 was more than 200 nM.)
13,CN(C)c1nc(N[C@H]2CC[C@@H](NC(=O)c3ccccc3Oc3ccccc3)CC2)nc2c1CCCC2 [compound 1030],1 (Class 1: The value of percent of control at 10^−7 M was less than 40% or the value of IC50 was less than 50 nM.)
14,CN(C)c1nc(N[C@H]2CC[C@@H](NC(=O)c3ccccc3-c3ccccc3)CC2)nc2c1CCCC2 [compound 1031],3 (Class 3 The value of percent of control at 10^−7 M was more than 60% or the value of IC50 was more than 200 nM.)
15,CN(C)c1nc(N[C@H]2CC[C@@H](NC(=O)CC(c3ccccc3)c3ccccc3)CC2)nc2c1CCCC2 [compound 1032],3 (Class 3 The value of percent of control at 10^−7 M was more than 60% or the value of IC50 was more than 200 nM.)
16,CN(C)c1nc(N[C@H]2CC[C@@H](NC(=O)c3cc(-c4ccccc4)nc4ccccc34)CC2)nc2c1CCCC2 [compound 1033],2 (Class 2: The value of percent of control at 10^−7 M was from 40% to 60% or the value of IC′50 was from 50 nM to 200 nM.)
17,C[C@H](NC(=O)c1ccccc1C(=O)N[C@H]1CC[C@@H](Nc2nc3c(c(N(C)C)n2)CCCC3)CC1)c1ccccc1 [compound 1034],3 (Class 3 The value of percent of control at 10^−7 M was more than 60% or the value of IC50 was more than 200 nM.)
18,Cc1ccc(C(=O)c2ccccc2C(=O)N[C@H]2CC[C@@H](Nc3nc4c(c(N(C)C)n3)CCCC4)CC2)cc1 [compound 1035],3 (Class 3 The value of percent of control at 10^−7 M was more than 60% or the value of IC50 was more than 200 nM.)
19,CN(C)c1nc(N[C@H]2CC[C@@H](NC(=O)c3ccccc3COc3ccccc3)CC2)nc2c1CCCC2 [compound 1036],3 (Class 3 The value of percent of control at 10^−7 M was more than 60% or the value of IC50 was more than 200 nM.)
